Like-named read-outs stand apart in the source and are kept apart here.
What was measured:
Heterodera glycines = type: in vivo
Protocol: (§1) A field experiment was conducted at one site in Waseca in 1998. Fungi used in this study included three species of egg-parasitic fungi, Verticillium chlamydosporium from Florida, ARF18 from Arkansas, and Cylindrocarpon destructans from Minnesota, and two species of juvenile-parasitic fungi, Hirsutella rhossiliensis and Hirsutella minnesotensis from Minnesota. The fungi were cultured on corn-grits, applied in furrow and mixed into soil. Additionally, aldicarb (nematicide) and lorsban (insecticide) were included for a comparison purpose. Plots applied with fungal culture medium, without addition of the culture medium, and plots with a resistant cultivar Pioneer 9234 were included as controls. Each plot consisted of two rows with row spacing of 30 inches and row length of 15 feet. The plots were separated by four rows without application of agents. Four replicates were used. Nematode egg density at planting, and egg density and juvenile density 2 months after planting and at harvest were determined. […] Levels of fungal parasitism of nematode eggs and juveniles were measured 2 months after planting and at harvest.
Other procedures applied in 2000 were the same as used in 1999.

soybean cyst nematode = assay: 1998 field trial (Waseca): SCN population, fungal parasitism, soybean growth; type: in vivo, Heterodera glycines
Protocol: as §1

Hirsutella rhossiliensis = conditions: for Growth rate mm-in-diam, on agar: named vitamin excluded from medium with all other vitamins; for Growth rate mm-in-diam, on agar / Sporulation 10^3/cm^2, on agar / growth in liquit culture (visual rating): 5 weeks; for Spore germination %, on agar / Sporulation 10^3/cm^2, on agar / growth in liquit culture (visual rating): named vitamin excluded

## CNC(=O)O/N=C/C(C)(C)SC [Aldicarb, aldicarb]
Heterodera glycines; in vivo
  % J2 parasitizd, Midseason: 12.9a %
  Eggs/100 cc soil, At harvest: 13,975b Eggs/100 cc soil
  Eggs/100 cc soil, Midseason: 1,166bc Eggs/100 cc soil
  J2/100 cc soil, Midseason: 141bc
Heterodera glycines; soybean, 2000 field plots, means of four replicates
  Yield bu/A: 55.5a bu/A
Soybean cyst nematode; in vivo
  % J2 parasitized, End season: 4%
  % J2 parasitized, Midseason: 0%
  Egg population, At planting, Eggs/100 cm^3 soil: 772 Eggs/100 cm^3 soil
  Egg population, End season, % Reduction: 64%
  Egg population, End season, Eggs/100 cm^3 soil: 4,788 Eggs/100 cm^3 soil
  Egg population, Midseason, % Reduction: 58%
  Egg population, Midseason, Eggs/100 cm^3 soil: 1,200 Eggs/100 cm^3 soil
  Juvenile (J2) population, End season, % Reduction: 66%
  Juvenile (J2) population, End season, J2/100 cm^3 soil: 98
  Juvenile (J2) population, Midseason, % Reduction: 54%
  Juvenile (J2) population, Midseason, J2/100 cm^3 soil: 129
  Plant growth: Emergence rate (%): 88.4%
  Reproduction rate Pf/Pi: 6.5
  Reproduction rate Pf/Pm: 4.5
  Reproduction rate Pm/Pi: 1.6
Soybean cyst nematode; soybean, 1998 field plots, 1200 g ai/acre
  Plant growth: Yield (Bul/Acre): 23.0 Bul/Acre

## O=C(O)CCCC[C@@H]1SC[C@@H]2NC(=O)N[C@@H]21 [d-Biotin (V.H)]
Hirsutella rhossiliensis; isolate ATCC46487
  Growth rate mm-in-diam, on agar: 39.7 mm-in-diam
  Spore germination %, on agar: 80.0%
  Sporulation 10^3/cm^2, on agar: 29.5 10^3/cm^2
Hirsutella rhossiliensis; isolate JA16-1
  Growth rate mm-in-diam, on agar: 16.3 mm-in-diam
  Spore germination %, on agar: 90.0%
  Sporulation 10^3/cm^2, on agar: 14.1 10^3/cm^2
  growth in liquit culture (visual rating): I
Hirsutella rhossiliensis; isolate OWVT-1
  Growth rate mm-in-diam, on agar: 27.7 mm-in-diam
  Spore germination %, on agar: 50.0%
  Sporulation 10^3/cm^2, on agar: 11.7 10^3/cm^2

## O=C(O)c1cccnc1 [Nicotinic acid]
Hirsutella rhossiliensis; isolate ATCC46487
  Growth rate mm-in-diam, on agar: 40.5 mm-in-diam
  Spore germination %, on agar: 77.8%
  Sporulation 10^3/cm^2, on agar: 30.1 10^3/cm^2
Hirsutella rhossiliensis; isolate JA16-1
  Growth rate mm-in-diam, on agar: 20.0 mm-in-diam
  Spore germination %, on agar: 94.4%
  Sporulation 10^3/cm^2, on agar: 12.2 10^3/cm^2
  growth in liquit culture (visual rating): I
Hirsutella rhossiliensis; isolate OWVT-1
  Growth rate mm-in-diam, on agar: 27.7 mm-in-diam
  Spore germination %, on agar: 57.8%
  Sporulation 10^3/cm^2, on agar: 10.7 10^3/cm^2
